Measurements from patent US20050042751A1, “Generation and use of new types of dendritic cells” (priority 2001, published 2005).

Tests used:
Type in all cases: cell-based, human
[1] = system: monocyte-derived DC; assay: Phenotypic changes of DC upon coculture with γδ T cells (flow cytometry)
Experimental: DC cultures were cultured for 24 alone, in the presence of BrHpp (200 nM) only, or with γδ T cells activated by BrHpp as described in example 1. Neutralizing anti-TNF or anti-IFNγ Ab was added at a concentration of 20 and 15 μg/ml, respectively. The expression of HLA-DR, CD86, and CD83 on DC was measured by flow cytometry and expressed as means+/−SEM of mean fluorescence intensity in five independent experiments on different healty donors. • ^1 p<0.05 compared to DC cultured alone or with BrHpp only. • ^2 p<0.05 compared to DC cultured with activated γδ T cells in absence of mAb.
Purification of γδ T cells and DC generation. Peripheral blood mononuclear cells (PBMC) from healthy volunteers were isolated by density centrifugation of heparinized blood on Lymphoprep (Nycomed, Oslo, Norway), washed with HBSS, resuspended in culture medium and allowed to adhere In culture flasks for 2 h at 37° C. Non-adherent cells were removed and adherent monocytes were cultured during 6 days in presence of 500 U/ml granulocyte macrophage colony-stimulating factor (GM-CSF) (Leucomax, Schering-Plough Kenilworth, N.J.) and 800 U/ml of IL-4 (Cellgenix, Freiburg, Germany). The resulting cell preparation routinely contained >90% DC as assessed by morphology and FACS analysis.
(§1) Cell culture conditions. γδ T cells (7.5 10^5 cells/500 μl) were cultured for 24 h in flat-bottomed 24-well plates in culture medium supplemented or not with BrHpp (200 nM). Autologous DC (10^6 cells/500 μl) were added to γδ T cell cultures for another 24 h and analyzed for the expression of surface markers and for their ability to release cytokines. In parallel, DC (10^6 cells/ml) were cultured for 24 h in 24-well plates either in medium alone, or in presence of BrHpp (100 nM). In some experiments, anti-TNF-α (20 μg/ml) or anti-IFN-γ (15 μg/ml) neutralizing monoclonal antibody (mAb) or their isotypic control used at similar concentration (Biosource Fleurus, Belgium) were added to DC-γδ T cell cocultures. In parallel, DC and γδ T cells were cocultured in a transwell culture system (Costar, Belgium).
Immunophenotyping by flow cytometry. Monocyte-derived DC were stained using PE-labeled specific mAb HLA-DR, CD86, CD83 (Beckton-Dickinson, Mountain view, CA). FITC-conjugated anti-TCR γδ mAb (Becton-Dickinson, San Jose, Calif.) was used to assess γδ T cell purity and to exclude them in flow cytometry analysis of DC in DC-γδ T cell cocultures. Briefly, 5×10^5 cells were incubated with the relevant mAbs or their isotype-matched controls for 20 min at 4° C., washed and fluorescence intensity was analyzed using a FACS-Calibur (Becton-Dickinson).

[2] = system: γδ T cells; assay: TNF-α and IFN-γ production by γδ T cells (ELISA)
Experimental: γδ T cells (7.5 10^5 cells/500 μl) were either cultured in medium alone or stimulated with BrHpp (200 nM). After 48 h, culture supernatants were assayed by ELISA for TNF-α and IFN-γ levels.
For γδ T cell isolation, cells expressing γ-δ receptors on their membrane were positively selected using immunomagnetic depletion (Miltenyi Sanvertech, Belgium). Briefly, non-adherent PBMC containing 2 to 5% of γδ T cells were incubated with biotin-conjugated anti-γδ T cell receptor (TCR) antibodies for 15 min at 4° C., washed three times, and then incubated with immunomagnetic beads coated with streptavidin.
as §1, with “In some experiments, anti-TNF-α (20 μg/ml) or anti-IFN-γ (15 μg/ml) neutralizing monoclonal antibody (mAb) or their isotypic control used at similar concentration (Biosource Fleurus, Belgium) were added to DC-γδ T cell cocultures.” left out
(§2) Determination of cytokine levels. TNF-α, IL-12 p-40 and IFN-γ levels in culture supernatants were determined by ELISA kits from Biosource. IL-12 p70 levels were measured using the Endogen Elisa kit (Endogen, Belgium).

[3] = system: monocyte-derived DC; assay: IL-12 production by DC in DC-γδ T cell cocultures (ELISA)
Experimental: FIG. 3: γδ T cells induce IL-12 production by DC. Monocyte-derived DC were cocultured alone or in the presence of BrHpp only or cocultured with unstimulated or BrHpp-activated γδ T in absence or presence of either anti-TNF-α, anti-IFN-γ neutralizing mAbs or both. After 24 h of culture, supernatants were assayed for IL12-p40 and p70 levels by ELISA. Results were expressed as mean±SEM of 6 independent experiments. • * p<0.05 compared to DC cultured in medium alone or containing BrHpp • ** p<0.05 compared to DC stimulated with BrHPP-activated γδ T cells in the absence of mAb.
as §1, §2

[4] = DC cultured 24 h with BrHpp (200 nM) only, mean+/-SEM, 5 experiments
[5] = γδ T cells 7.5 10^5 cells/500 μl, BrHpp 200 nM, 48 h, culture supernatant, mean±SEM of 13 experiments

CC(O)(CBr)CCOP(=O)(O)OP(=O)(O)O (centres unmarked) [BrHpp, bromohydrin pyrophosphate]
CD83 expression on DC (mean fluorescence intensity) [1, 4]: 69 +/− 14
CD86 expression on DC (mean fluorescence intensity) [1, 4]: 308 +/− 205
HLA DR expression on DC (mean fluorescence intensity) [1, 4]: 610 +/− 354
effect of preactivation of γδT cells on upregulation of HLA-DR, CD86 and CD83 on DC ([1]; γδT cells preactivated with BrHpp versus not preactivated): did not result in a further increase
effect on IFN-γ secretion by γδ T cells ([2]; text statement on table 1): induced
effect on basal production of TNF-α by γδ T cells ([2]; text statement on table 1): further increased
IFN-γ [2, 5]: 452 ± 76^1 pg/ml
TNF-α [2, 5]: 17406 ± 1290^1 pg/ml
effect on IL-12 production by DC ([3]; DC cultured in absence of γδ T cells): no effect
induction of IL-12 (p70) synthesis ([3]; DC-γδ T cell coculture in the presence of BrHpp): detected
increase in IL-12 (p40) levels ([3]; DC-γδ T cell coculture in the presence of BrHpp versus without BrHpp): 3 fold
